Here are results for one compound from paper PMC11434752, “Algerian Prickly Pear Seed By-Products: Fatty Acids Composition, Antioxidant, Enzyme Inhibitory Activities towards Tyrosinase, Urease, α-Amylase, and Cholinesterase, along with the Ability to Protect from Thermal Protein Denaturation” (Pharmaceuticals, 2024).

This experiment has as its target urease (Canavalia ensiformis, UniProt P07374). Briefly: biochemical.

Molecules are shown by their SMILES.

urease, sequence (P07374 whole entry): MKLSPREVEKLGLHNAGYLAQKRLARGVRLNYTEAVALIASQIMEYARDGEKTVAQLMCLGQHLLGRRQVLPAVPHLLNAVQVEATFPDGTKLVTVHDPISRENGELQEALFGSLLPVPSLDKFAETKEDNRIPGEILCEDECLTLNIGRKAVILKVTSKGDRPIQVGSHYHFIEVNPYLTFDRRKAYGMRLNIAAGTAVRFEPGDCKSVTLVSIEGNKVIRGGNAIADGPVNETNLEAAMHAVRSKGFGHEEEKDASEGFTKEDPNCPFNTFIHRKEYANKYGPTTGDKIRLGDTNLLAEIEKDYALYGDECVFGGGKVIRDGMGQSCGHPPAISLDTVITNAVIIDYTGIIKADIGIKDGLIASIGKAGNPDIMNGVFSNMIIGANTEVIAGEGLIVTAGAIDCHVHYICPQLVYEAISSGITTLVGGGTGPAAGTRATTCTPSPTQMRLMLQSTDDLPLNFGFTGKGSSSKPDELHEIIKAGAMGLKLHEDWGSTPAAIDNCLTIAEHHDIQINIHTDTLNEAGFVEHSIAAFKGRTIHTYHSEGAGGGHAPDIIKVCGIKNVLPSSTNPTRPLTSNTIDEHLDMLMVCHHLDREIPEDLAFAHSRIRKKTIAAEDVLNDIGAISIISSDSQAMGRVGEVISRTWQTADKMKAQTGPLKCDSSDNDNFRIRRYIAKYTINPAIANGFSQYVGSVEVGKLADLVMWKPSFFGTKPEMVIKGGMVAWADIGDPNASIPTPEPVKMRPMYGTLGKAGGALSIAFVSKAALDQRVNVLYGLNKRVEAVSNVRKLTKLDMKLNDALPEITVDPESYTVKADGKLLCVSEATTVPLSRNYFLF

As usually defined, the IC50 is the concentration needed to halve the response being measured. In turn, `NC(N)=S` [Thiourea] had a half-maximal inhibitory concentration (IC50) of 111 µM.
